# From patent US20250206757A1 (GASHERBRUM BIO, INC., priority 2022, published 2025)
# Target: GLP-1 Receptor (Homo sapiens, UniProt P43220)
# Test: GLP-1R agonist cAMP stimulation assay (HEK293/GLP1R/CRE-LUC cells, HTRF cAMP dynamic 2 kit)
# Type: cell-based
# Settings: HEK293/CRE-Luc cell line stably expressing the GLP-1 Receptor; 30 min incubation at 37° C.
# Method in brief: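 HEK293 cells stably expressing GLP-1R with CRE-Luc, 1000 cells/well in DPBS with 0.5 mM IBMX and 0.10% BSA, exposed to half-log compound dilutions for 30 min at 37 °C. cAMP measured by HTRF (665/615 nm) after 1 h at room temperature.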
# GLP-1 Receptor, sequence (P43220 24-463): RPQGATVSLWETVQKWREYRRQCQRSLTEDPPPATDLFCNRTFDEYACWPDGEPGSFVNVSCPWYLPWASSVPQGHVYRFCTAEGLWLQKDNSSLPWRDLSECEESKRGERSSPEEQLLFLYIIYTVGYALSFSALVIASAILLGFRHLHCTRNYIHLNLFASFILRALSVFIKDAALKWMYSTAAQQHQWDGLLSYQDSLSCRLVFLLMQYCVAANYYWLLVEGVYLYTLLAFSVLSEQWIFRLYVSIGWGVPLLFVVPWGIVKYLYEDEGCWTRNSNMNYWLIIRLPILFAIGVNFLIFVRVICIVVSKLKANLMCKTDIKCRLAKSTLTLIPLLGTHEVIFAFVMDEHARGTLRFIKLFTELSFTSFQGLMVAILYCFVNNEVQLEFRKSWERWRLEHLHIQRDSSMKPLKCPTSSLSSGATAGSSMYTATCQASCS
row,EC50 [nM],Compound
1,< 1,"Cc1nnc(-c2cc3nc(CN4CCc5cc(C(F)(F)F)c(OCc6c(F)cc(Cl)cc6F)nc5C4)n(C[C@@H]4CCO4)c3cn2)[nH]1 [Compound 63, 2-[(4-chloro-2,6-difluorophenyl)methoxy]-7-{[6-(5-methyl-4H-1,2,4-triazol-3-yl)-3-{[(2S)-oxetan-2-yl]methyl}-3H-imidazo[4,5-c]pyridin-2-yl]methyl}-3-(trifluoromethyl)-5,6,7,8-tetrahydro-1,7-naphthyridine]"
2,< 1,"O=c1[nH]c(-c2cnc3c(c2)nc(CN2CCc4cc(C(F)(F)F)c(OCc5c(F)cc(Cl)cc5F)nc4C2)n3C[C@@H]2CCO2)no1 [Compound 30, 3-[2-({2-[(4-chloro-2,6-difluorophenyl)methoxy]-3-(trifluoromethyl)-5,6,7,8-tetrahydro-1,7-naphthyridin-7-yl}methyl)-3-{[(2S)-oxetan-2-yl]methyl}-3H-imidazo[4,5-b]pyridin-6-yl]-4,5-dihydro-1,2,4-oxadiazol-5-one]"
3,< 1,"O=c1[nH]c(-c2ccc3c(c2)nc(CN2CCc4cc(C(F)(F)F)c(OCc5ccc(Cl)cc5F)nc4C2)n3C[C@@H]2CCO2)no1 [Compound 36, 3-[2-({2-[(4-chloro-2-fluorophenyl)methoxy]-3-(trifluoromethyl)-5,6,7,8-tetrahydro-1,7-naphthyridin-7-yl}methyl)-1-{1[(2S)-oxetan-2-yl]methyl}-1H-1,3-benzodiazol-5-yl]-4,5-dihydro-1,2,4-oxadiazol-5-one]"
4,< 1,"Cc1cc2c(nc1OCc1c(F)cc(Cl)cc1F)CN(Cc1nc3cc(-c4nnc(C(F)F)[nH]4)ncc3n1C[C@@H]1CCO1)CC2 [Compound 56, 2-[(4-chloro-2,6-difluorophenyl)methoxy]-7-({6-[5-(difluoromethyl)-4H-1,2,4-triazol-3-yl]-3-{[(2S)-oxetan-2-yl]methyl}-3H-imidazo[4,5-c]pyridin-2-yl}methyl)-3-methyl-5,6,7,8-tetrahydro-1,7-naphthyridine]"
5,> 300,"O=c1cc(-c2cc3nc(CN4CCc5cc(C(F)(F)F)c(OCc6ccc(Cl)cc6F)nc5C4)n(C[C@@H]4CCO4)c3cn2)cc[nH]1 [Compound 100, 4-[2-({2-[(4-chloro-2-fluorophenyl)methoxy]-3-(trifluoromethyl)-5,6,7,8-tetrahydro-1,7-naphthyridin-7-yl}methyl)-3-{1[(2S)-oxetan-2-yl]methyl}-3H-imidazo[4,5-c]pyridin-6-yl]-1,2-dihydropyridin-2-one]"
6,1 to 300,"Fc1cc(Cl)ccc1COc1nc2c(cc1C(F)(F)F)CCN(Cc1nc3cc(-c4nnc(C(F)(F)F)[nH]4)ncc3n1C[C@H]1CCOC1)C2 [Compound 76, 2-[(4-chloro-2-fluorophenyl)methoxy]-7-[(3-{[(3R)-oxolan-3-yl]methyl}-6-[5-(trifluoromethyl)-4H-1,2,4-triazol-3-yl]-3H-imidazo[4,5-c]pyridin-2-yl)methyl]-3-(trifluoromethyl)-5,6,7,8-tetrahydro-1,7-naphthyridine]"
7,< 1,"Fc1cc(Cl)ccc1COc1nc2c(cc1C(F)(F)F)CCN(Cc1nc3cc(-c4nnc(C(F)(F)F)[nH]4)ncc3n1C[C@@H]1CCO1)C2 [Compound 4, 2-[(4-chloro-2-fluorophenyl)methoxy]-7-[(3-{[(2S)-oxetan-2-yl]methyl}-6-[5-(trifluoromethyl)-4H-1,2,4-triazol-3-yl]-3H-imidazo[4,5-c]pyridin-2-yl)methyl]-3-(trifluoromethyl)-5,6,7,8-tetrahydro-1,7-naphthyridine]"
